Measurements taken from ChEMBL document CHEMBL1139660, “Imidazo[1,2-b][1,2,4]triazines as alpha2/alpha3 subtype selective GABA A agonists for the treatment of anxiety” (Bioorg Med Chem Lett, 2006).

Legend:
[1] = molecular target: T1, GABA-A receptor; alpha-1/beta-3/gamma-2 (Homo sapiens) (UniProt P14867+P18507+P28472); experiment: Efficacy against recombinant human GABA-Aalpha1 receptor plus beta-3-gamma-2 expressed in L(tk-) cells by whole cell patch clamp method; assay type: functional, cell-based
[2] = molecular target: T2, GABA-A receptor; alpha-1/beta-3/gamma-2 (Homo sapiens, UniProt P14867+P18507+P28472); experiment: Displacement of [3H]Ro 15-1788 from recombinant human GABA-Aalpha1 receptor plus beta3gamma2 expressed in mouse L(tk-) cells; assay type: cell-based
T2 sequence (P14867 whole entry): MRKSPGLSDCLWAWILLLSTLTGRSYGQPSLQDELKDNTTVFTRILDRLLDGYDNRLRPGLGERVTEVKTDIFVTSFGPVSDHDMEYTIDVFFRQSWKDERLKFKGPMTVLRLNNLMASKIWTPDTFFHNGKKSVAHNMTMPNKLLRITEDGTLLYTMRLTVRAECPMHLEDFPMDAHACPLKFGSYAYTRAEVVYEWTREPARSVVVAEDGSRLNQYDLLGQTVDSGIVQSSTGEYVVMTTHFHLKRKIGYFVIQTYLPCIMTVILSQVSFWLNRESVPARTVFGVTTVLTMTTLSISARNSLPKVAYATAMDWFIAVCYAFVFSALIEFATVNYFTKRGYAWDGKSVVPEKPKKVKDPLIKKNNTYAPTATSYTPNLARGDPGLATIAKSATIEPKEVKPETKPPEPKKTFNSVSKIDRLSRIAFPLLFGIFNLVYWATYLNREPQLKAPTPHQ
T2 sequence (P18507 whole entry): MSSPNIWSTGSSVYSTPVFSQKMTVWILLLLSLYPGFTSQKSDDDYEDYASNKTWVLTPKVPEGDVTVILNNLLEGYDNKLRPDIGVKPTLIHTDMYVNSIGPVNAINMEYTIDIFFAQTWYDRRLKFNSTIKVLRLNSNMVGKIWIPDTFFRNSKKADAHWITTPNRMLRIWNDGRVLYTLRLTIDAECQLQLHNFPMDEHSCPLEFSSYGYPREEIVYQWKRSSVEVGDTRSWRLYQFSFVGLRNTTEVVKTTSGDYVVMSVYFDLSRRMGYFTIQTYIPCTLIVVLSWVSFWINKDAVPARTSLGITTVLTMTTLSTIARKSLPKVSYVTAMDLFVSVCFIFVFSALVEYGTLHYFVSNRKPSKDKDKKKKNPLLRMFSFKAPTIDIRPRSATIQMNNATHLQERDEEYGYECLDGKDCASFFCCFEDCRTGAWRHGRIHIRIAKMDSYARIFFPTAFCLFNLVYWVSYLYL
T2 sequence (P28472 whole entry): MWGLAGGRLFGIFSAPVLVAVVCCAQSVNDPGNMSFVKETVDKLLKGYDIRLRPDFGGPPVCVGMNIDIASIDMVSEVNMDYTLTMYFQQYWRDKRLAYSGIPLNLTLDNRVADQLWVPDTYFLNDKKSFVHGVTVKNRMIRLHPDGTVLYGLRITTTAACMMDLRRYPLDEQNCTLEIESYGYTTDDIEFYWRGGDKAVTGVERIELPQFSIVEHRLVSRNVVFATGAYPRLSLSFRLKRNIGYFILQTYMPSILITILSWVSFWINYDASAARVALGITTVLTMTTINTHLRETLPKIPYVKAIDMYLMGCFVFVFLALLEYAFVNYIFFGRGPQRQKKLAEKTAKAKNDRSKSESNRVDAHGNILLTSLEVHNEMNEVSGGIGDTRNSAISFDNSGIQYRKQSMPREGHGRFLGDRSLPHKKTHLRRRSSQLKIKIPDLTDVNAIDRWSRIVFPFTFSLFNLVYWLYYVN

[3] = molecular target: T3, GABA-A receptor; alpha-3/beta-3/gamma-2 (Homo sapiens) (UniProt P18507+P28472+P34903); experiment: Efficacy against recombinant human GABA-Aalpha3 receptor plus beta-3-gamma-2 expressed in L(tk-) cells by whole cell patch clamp method relative to chlordiazepoxide; assay type: functional, cell-based
[4] = molecular target: T4, GABA-A receptor; alpha-3/beta-3/gamma-2 (Homo sapiens, UniProt P18507+P28472+P34903); experiment: Displacement of [3H]Ro 15-1788 from recombinant human GABA-Aalpha3 receptor plus beta-3-gamma-2 expressed in L(tk-) cells; assay type: cell-based
T4 sequence (P18507 whole entry): T2 sequence (P18507 whole entry)
T4 sequence (P28472 whole entry): T2 sequence (P28472 whole entry)
T4 sequence (P34903 whole entry): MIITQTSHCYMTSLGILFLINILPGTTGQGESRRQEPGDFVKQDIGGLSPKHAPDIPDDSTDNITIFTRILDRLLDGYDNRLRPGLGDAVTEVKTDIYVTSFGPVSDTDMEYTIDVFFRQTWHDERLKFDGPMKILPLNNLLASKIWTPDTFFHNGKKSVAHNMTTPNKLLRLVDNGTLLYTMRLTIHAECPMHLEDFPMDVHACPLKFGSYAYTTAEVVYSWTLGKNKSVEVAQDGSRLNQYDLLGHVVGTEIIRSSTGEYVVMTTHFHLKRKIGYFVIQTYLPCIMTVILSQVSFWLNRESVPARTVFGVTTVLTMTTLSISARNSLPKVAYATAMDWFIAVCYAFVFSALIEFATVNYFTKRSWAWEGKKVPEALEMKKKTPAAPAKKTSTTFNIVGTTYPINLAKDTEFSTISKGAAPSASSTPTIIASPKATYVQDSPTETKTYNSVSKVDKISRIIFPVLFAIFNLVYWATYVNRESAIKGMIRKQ

[5] = molecular target: T5, GABA-A receptor; alpha-5/beta-3/gamma-2 (Homo sapiens, UniProt P18507+P28472+P31644); experiment: Displacement of [3H]Ro 15-1788 from recombinant human GABA-Aalpha5 receptor plus beta-3-gamma-2 expressed in L(tk-) cells; assay type: cell-based
T5 sequence (P18507 whole entry): T2 sequence (P18507 whole entry)
T5 sequence (P28472 whole entry): T2 sequence (P28472 whole entry)
T5 sequence (P31644 whole entry): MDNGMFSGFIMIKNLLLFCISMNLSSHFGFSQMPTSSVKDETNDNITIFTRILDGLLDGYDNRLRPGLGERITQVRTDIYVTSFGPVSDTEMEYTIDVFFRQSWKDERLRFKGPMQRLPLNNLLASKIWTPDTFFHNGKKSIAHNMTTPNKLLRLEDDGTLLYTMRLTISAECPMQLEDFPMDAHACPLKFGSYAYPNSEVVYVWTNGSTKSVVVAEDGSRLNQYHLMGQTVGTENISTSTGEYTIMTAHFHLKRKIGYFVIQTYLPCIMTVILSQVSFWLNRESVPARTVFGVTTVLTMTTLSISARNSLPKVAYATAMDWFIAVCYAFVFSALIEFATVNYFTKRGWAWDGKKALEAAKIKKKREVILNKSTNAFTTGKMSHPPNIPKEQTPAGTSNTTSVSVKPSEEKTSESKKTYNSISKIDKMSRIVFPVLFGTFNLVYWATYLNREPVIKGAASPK

[6] = molecular target: T3, GABA-A receptor; alpha-3/beta-3/gamma-2 (Homo sapiens); experiment: Efficacy against recombinant human GABA-Aalpha3 receptor plus beta-3-gamma-2 expressed in L(tk-) cells by modulation of chloride ion flux relative to chlordiazepoxide; assay type: functional, cell-based
[7] = molecular target: T1, GABA-A receptor; alpha-1/beta-3/gamma-2 (Homo sapiens); experiment: Efficacy against recombinant human GABA-Aalpha1 receptor plus beta-3-gamma-2 expressed in L(tk-) cells by modulation of chloride ion flux relative to chlordiazepoxide; assay type: cell-based
[8] = Half life in Beagle dog at 1 mg/kg, iv or 1 mg/kg, po; assay type: ADME, organism-based, Canis lupus familiaris; details: in vivo
[9] = Oral bioavailability in Beagle dog at 1 mg/kg, iv or 1 mg/kg, po; assay type: ADME, organism-based, Canis lupus familiaris; details: in vivo
[10] = Plasma clearance in Beagle dog at 1 mg/kg, iv or 1 mg/kg, po; assay type: ADME, organism-based, Canis lupus familiaris
[11] = Half life in Sprague-Dawley rat at 1 mg/kg, iv or 1 mg/kg, po; assay type: ADME, organism-based; details: in vivo
[12] = molecular target: GABA-A receptor; alpha-5/beta-3/gamma-2 (Homo sapiens) (UniProt P18507+P28472+P31644); experiment: Efficacy against recombinant human GABA-Aalpha5 receptor plus beta3gamma2 expressed in L(tk-) cells by whole cell patch clamp method relative to chlordiazepoxide; assay type: functional, cell-based
[13] = molecular target: T6, GABA-A receptor; alpha-2/beta-3/gamma-2 (Homo sapiens, UniProt P18507+P28472+P47869); experiment: Displacement of [3H]Ro 15-1788 from recombinant human GABA-Aalpha2 receptor plus beta-3-gamma-2 expressed in mouse L(tk-) cells; assay type: cell-based
T6 sequence (P18507 whole entry): T2 sequence (P18507 whole entry)
T6 sequence (P28472 whole entry): T2 sequence (P28472 whole entry)
T6 sequence (P47869 whole entry): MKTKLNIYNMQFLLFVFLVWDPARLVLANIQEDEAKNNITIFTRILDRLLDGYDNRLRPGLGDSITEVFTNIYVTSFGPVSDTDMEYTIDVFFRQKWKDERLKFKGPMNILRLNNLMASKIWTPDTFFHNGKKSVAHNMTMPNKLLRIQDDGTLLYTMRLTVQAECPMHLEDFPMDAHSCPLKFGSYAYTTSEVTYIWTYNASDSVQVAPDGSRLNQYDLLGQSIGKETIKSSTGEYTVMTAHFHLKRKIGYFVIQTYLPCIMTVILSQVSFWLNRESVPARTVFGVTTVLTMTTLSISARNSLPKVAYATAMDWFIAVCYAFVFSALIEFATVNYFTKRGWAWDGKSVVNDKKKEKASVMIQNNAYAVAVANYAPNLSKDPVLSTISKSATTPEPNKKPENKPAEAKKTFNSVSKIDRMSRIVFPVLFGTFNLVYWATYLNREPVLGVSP

[14] = Volume of distribution in Sprague-Dawley rat at 1 mg/kg, iv or 1 mg/kg, po; assay type: ADME, organism-based; details: in vivo, read-out: Vdss
[15] = Oral bioavailability in Sprague-Dawley rat at 1 mg/kg, iv or 1 mg/kg, po; assay type: ADME, organism-based; details: in vivo
Rattus norvegicus = experiment: Plasma clearance in Sprague-Dawley rat at 1 mg/kg, iv or 1 mg/kg, po; assay type: organism-based
[16] = Volume of distribution in Beagle dog at 1 mg/kg, iv or 1 mg/kg, po; assay type: ADME, organism-based, Canis lupus familiaris; details: in vivo, read-out: Vdss
[17] = molecular target: GABA-A receptor; alpha-2/beta-3/gamma-2 (Homo sapiens) (UniProt P18507+P28472+P47869); experiment: Efficacy against recombinant human GABA-Aalpha2 receptor plus beta-3-gamma-2 expressed in L(tk-) cells by whole cell patch clamp method relative to chlordiazepoxide; assay type: functional, cell-based

Structure (SMILES)	Efficacy [1]	Ki [2] [nM]	Efficacy [3]	Ki [4] [nM]	Ki [5] [nM]	Efficacy [6]	Efficacy [7]	half-life [8] [h]	bioavailability [9] [%]	clearance [10] [mL/min/kg]	half-life [11] [h]	Efficacy [12]	Ki [13] [nM]	Vd [14] [L/kg]	bioavailability [15] [%]	CL (mL.min-1.kg-1) (Rattus norvegicus)	Vd [16] [L/kg]	Efficacy [17]
CC(C)(O)c1cnn2c(-c3ccc(F)c(-c4ncncc4C#N)c3)cnc2n1	0.01	0.67	0.34	3.3														
CC(C)(O)c1ccn2c(-c3ccc(F)c(-c4ncc(F)cc4F)c3)cnc2n1		1.79		3.76	1.13	0.21	0.18											
CC(C)(O)c1cnn2c(-c3ccc(F)c(-c4ncccc4C#N)c3)cnc2n1	0.01	1.28	0.69	9.53	9.34			9.7	99	2.2	7.9	0.2	8.43	1.7	102	2.4	1.5	0.37
CC(C)(O)c1cnn2c(-c3ccc(F)c(-c4ncccc4F)c3)cnc2n1	0.24	2.01	0.52	3.42	1.57													
CC(C)(O)c1ccn2c(-c3ccc(F)c(-c4ccncc4C#N)c3)cnc2n1		0.6		0.28	0.14	0.59	0.3											
CC(C)(O)c1ccn2c(-c3ccc(F)c(-c4ccncc4)c3)cnc2n1	0.42	0.68		2.25	0.31	0.47	0.18											
CC(C)(O)c1ccn2c(-c3ccc(F)c(-c4cccnc4)c3)cnc2n1	0.05		0.53			0.5	0.06	1	46	8.1				1		9.1	0.6	
